Counter-ions that a name gives are not always drawn.
Columns and labels:
Human DYRK1A = molecular target: T1, Human DYRK1A (Homo sapiens, UniProt Q13627); assay: DYRK1A Kinase TR-FRET (IMAP-Tb) Assay; type: biochemical; settings: for IC50: TR-FRET (IMAP-Tb), ATP 70 μM, 37° C. for 60 minutes, averages of multiple runs, read-out: Enzyme IC50 (μM) DYRK1A
T1 construct: purchased Invitrogen PV3997
Text: DYRK1A Kinase TR-FRET (IMAP-Tb) Assay
The kinase TR-FRET (IMAP-Tb) assay uses a fluorescence labeled substrate peptide in the kinase reaction. Upon phosphorylation by the kinase, phosphopeptide is produced, which will be detected by the binding solution provided in IMAP TR-FRET binding kit. After the completion of the kinase reaction, the reaction will be stopped by adding the binding solution containing terbium tracer. This tracer is immobilized on the surface of the IMAP beads, which also contain metal ions on the beads that bind to the phospho-groups of the products. Thus the phosphorylated product of the reaction can enter into close proximity to the tracer, producing resonance energy transfer. Due to the long lifetime of terbium (Tb) fluorescence the detection can be run in time resolved mode, which virtually eliminates fluorescence interference from assay components or compounds.
The TR-FRET signal measurement from this assay, given as an IC50 measurement, is a measure of a test compound's ability to interfere with the phosphorylation of the peptide substrate, that is it inhibits the phosphorylation of the substrate peptide by DYRK1A, and is thus a measure of the test compound's ability to inhibit the activity of DYRK1A.
Materials and Reagents • 1. Human DYRK1A: from Invitrogen. Part #PV3997 • 2. Substrate Peptide: […] • 3. IMAP TR-FRET IPP Explorer Kit: from Molecular Devices. Part #R8157 • 4. Kinase Assay Buffer (KAB): 10 mM HEPES pH 7.0, 50 mM NaCl, 5 mM MgCl2, 1 mM DTT, 1 mM NaVO4, 200 ug/mL BSA (0.02%) • 5. Assay Plate: Remp polypropylene clear 384-well microplate. […] Detection Plate: Costa black 384-well microplate.
Assay Procedure: this Assay was Performed as Follows: • 1. Transfer 1.5 μL of 20× compound solution to each well of an assay plate. • 2. Add to each well 22.5 μL of KAB Buffer. • 3. Add to each well 3 μL of the solution of DYRK1A and ATP. […] Add to each well 3 μL of the substrate peptide. The assay concentration is 1.0 μM • 5. Incubate the assay plates at 37° C. for 60 minutes. • 6. Add 18 μL of Detection Solution (1:800 diluted Progress bead stock, 1:400 diluted Tb stock, 80% Buffer A, and 20% Buffer B) into each well of detection plates. • 7. Transfer 6 μL of assay solution from the assay plate to the detection plate. • 8. Shake detection plates for 30 minutes. • 9. Read plates in Envision with wavelength set at excitation 340 nm for Tb, emission 490 nm, and […] 520 nm. • 10.

Human DYRK1B = molecular target: T2, Human DYRK1B (Homo sapiens, UniProt Q9Y463); assay: DYRK1B Kinase TR-FRET (IMAP-Tb) Assay; type: biochemical; settings: for inhibition at 10 µM: at 10 μM test compound concentration, where the IC50 was not determined; for IC50: TR-FRET (IMAP-Tb), ATP 70 μM, 37° C. for 60 minutes, averages of multiple runs, read-out: Enzyme IC50 (μM) DYRK1B
T2 construct: purchased Invitrogen PR8350B (former PV4649)
T2 sequence (Q9Y463 whole entry): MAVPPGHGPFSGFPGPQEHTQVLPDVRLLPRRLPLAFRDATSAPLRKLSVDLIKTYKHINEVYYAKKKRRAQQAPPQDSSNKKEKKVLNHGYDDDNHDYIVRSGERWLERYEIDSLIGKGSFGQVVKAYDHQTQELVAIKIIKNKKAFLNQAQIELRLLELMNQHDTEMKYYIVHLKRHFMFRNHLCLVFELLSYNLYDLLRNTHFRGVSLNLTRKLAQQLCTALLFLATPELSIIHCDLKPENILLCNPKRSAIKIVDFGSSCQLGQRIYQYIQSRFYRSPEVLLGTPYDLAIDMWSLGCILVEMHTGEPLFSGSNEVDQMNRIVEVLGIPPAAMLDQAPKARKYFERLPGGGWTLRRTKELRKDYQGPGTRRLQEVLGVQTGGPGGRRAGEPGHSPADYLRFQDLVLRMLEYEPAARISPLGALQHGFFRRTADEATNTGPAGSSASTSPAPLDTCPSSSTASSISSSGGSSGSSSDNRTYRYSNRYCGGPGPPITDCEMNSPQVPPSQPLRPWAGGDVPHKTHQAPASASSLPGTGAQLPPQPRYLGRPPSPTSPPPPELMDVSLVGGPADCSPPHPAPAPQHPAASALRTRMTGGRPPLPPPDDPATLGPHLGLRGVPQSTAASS
Text: DYRK1B Kinase TR-FRET (IMAP-Tb) Assay Assay Principle The kinase TR-FRET (IMAP-Tb) assay uses a fluorescence labeled substrate peptide in the kinase reaction. Upon phosphorylation by the kinase, phosphopeptide is produced, which will be detected by the binding solution provided in IMAP TR-FRET binding kit. After the completion of the kinase reaction, the reaction will be stopped by adding the binding solution containing terbium tracer. This tracer is immobilized on the surface of the IMAP beads, which also contain metal ions on the beads that bind to the phospho-groups of the products. Thus the phosphorylated product of the reaction can enter into close proximity to the tracer, producing resonance energy transfer. Due to the long lifetime of terbium (Tb) fluorescence the detection can be run in time resolved mode, which virtually eliminates fluorescence interference from assay components or compounds. The TR-FRET signal measurement from this assay, given as an IC50 measurement, is a measure of a test compound's ability to interfere with the phosphorylation of the peptide substrate, that is it inhibits the phosphorylation of the substrate peptide by DYRK1B, and is thus a measure of the test compound's ability to inhibit the activity of DYRK1B. IC50 is the amount of test compound that inhibits 50% of the activity of DYRK1B in this assay. In some cases where the IC50 was not determined, then the % inhibition at 10 μM test compound concentration may be reported. Materials and Reagents • 1. Human DYRK1B: from Invitrogen. Part #PR8350B (former PV4649) • 2. Substrate Peptide: in-house synthesized: RRRFRPASPLRGPPK • 3. IMAP TR-FRET IPP Explorer Kit: from Molecular Devices. Part #R8157 • 4. Kinase Assay Buffer (KAB): 10 mM HEPES pH 7.0, 50 mM NaCl, 5 mM MgCl2, 1 mM DTT, 1 mM NaVO4, 200 μg/mL BSA (0.02%) • 5. Assay Plate: Remp polypropylene clear 384-well microplate. Cat#23490-102 • 6. Detection Plate: Costa black 384-well microplate. Cat #3710 Assay Procedure: this Assay was Performed as Follows: • 1. Transfer 1.5 μL of 20× compound solution to each well of an assay plate. • 2. Add to each well 22.5 μL of KAB Buffer. • 3. Add to each well 3 μL of the solution of DYRK1B and ATP. […] Add to each well 3 μL of the substrate peptide. The assay concentration is 1.0 μM • 5. Incubate the assay plates at 37° C. for 60 minutes. • 6. Add 18 μL of Detection Solution (1:800 diluted Progress bead stock, 1:400 diluted Tb stock, 80% Buffer A, and 20% Buffer B) into each well of detection plates. • 7. Transfer 6 μL of assay solution from the assay plate to the detection plate. • 8. Shake detection plates for 30 minutes. • 9. Read plates in Envision with wavelength set at excitation 340 nm for Tb, emission 490 nm, and […] 520 nm. • 10. Calculation: TR-FRET Signal=(Reading at […]/Reading at 490 nM)×2000000

Compound	IC50 (Human DYRK1A)	inhibition at 10 µM (Human DYRK1B)	IC50 (Human DYRK1B)	inhibition at 10 µM (Human DYRK1A; at 10 μM test compound concentration, where the IC50 was not determined)
c1ccc(CNc2cccc(-c3n[nH]c4nc(NCCN5CCCCC5)ncc34)n2)cc1 [Example 44, [3-(6-Benzylamino-pyridin-2-yl)-1H-pyrazolo[3,4-d]pyrimidin-6-yl]-(2-piperidin-1-yl-ethyl)-amine]	3.96 µM	32%		
c1ccc(CNc2cccc(-c3n[nH]c4nc(NCCN5CCOCC5)ncc34)n2)cc1 [Example 45, [3-(6-Benzylamino-pyridin-2-yl)-1H-pyrazolo[3,4-d]pyrimidin-6-yl]-(2-morpholin-4-yl-ethyl)-amine]	2.31 µM		4.58 µM	
c1ccc(CNc2cccc(-c3n[nH]c4nc(NCCN5CCOCC5)ncc34)c2)cc1 [Example 46, [3-(3-Benzylamino-phenyl)-1H-pyrazolo[3,4-d]pyrimidin-6-yl]-(2-morpholin-4-yl-ethyl)-amine]		43%		55%
Clc1ccc(CNc2cccc(-c3n[nH]c4nc(NCCN5CCOCC5)ncc34)n2)cc1 [Example 48, {3-[6-(4-Chloro-benzylamino)-pyridin-2-yl]-1H-pyrazolo[3,4-d]pyrimidin-6-yl}-(2-morpholin-4-yl-ethyl)-amine]	2.96 µM		2.92 µM	
Clc1ccc(CNc2cccc(-c3n[nH]c4nc(NCCN5CCOCC5)ncc34)c2)cc1 [Example 50, {3-[3-(4-Chloro-benzylamino)-phenyl]-1H-pyrazolo[3,4-d]pyrimidin-6-yl}-(2-morpholin-4-yl-ethyl)-amine]	4.91 µM		> 10 µM	
c1cc(NCc2ccsc2)cc(-c2n[nH]c3nc(NCCN4CCOCC4)ncc23)c1 [Example 51, (2-Morpholin-4-yl-ethyl)-(3-{3-[(thiophen-3-ylmethyl)-amino]-phenyl}-1H-pyrazolo[3,4-d]pyrimidin-6-yl)-amine]	9.02 µM		> 10 µM	
N[C@H]1CC[C@H](Nc2ncc3c(-c4cccc(NCc5ccsc5)n4)n[nH]c3n2)CC1 [Example 65, N-(3-{6-[(Thiophen-3-ylmethyl)-amino]-pyridin-2-yl}-1H-pyrazolo[3,4-d]pyrimidin-6-yl)-cyclohexane-1,4-diamine; hydrochloride]	0.021 µM		< 0.005 µM	
NCC(Nc1nccc(-c2n[nH]c3nc(N[C@H]4CC[C@H](N)CC4)ncc23)n1)c1ccccc1 (stereo partly drawn) [Example 67, N-{3-[2-(2-Amino-1-phenyl-ethylamino)-pyrimidin-4-yl]-1H-pyrazolo[3,4-d]pyrimidin-6-yl}-cyclohexane-1,4-diamine; hydrochloride]	0.0046 µM		0.00517 µM	
NCCC(Nc1nccc(-c2n[nH]c3nc(N[C@H]4CC[C@H](N)CC4)ncc23)n1)c1ccccc1 (stereo partly drawn) [Example 68, N-{3-[2-(3-Amino-1-phenyl-propylamino)-pyrimidin-4-yl]-1H-pyrazolo[3,4-d]pyrimidin-6-yl}-cyclohexane-1,4-diamine; hydrochloride]	0.011 µM		0.011 µM	
NCCC(Nc1cccc(-c2n[nH]c3nc(NCCN4CCOCC4)ncc23)c1)c1ccccc1 (stereo not drawn) [Example 73, N1-{3-[6-(2-Morpholin-4-yl-ethylamino)-1H-pyrazolo[3,4-d]pyrimidin-3-yl]-phenyl}-1-phenyl-propane-1,3-diamine; hydrochloride]	4.88 µM		9.59 µM	
NCCC(Nc1cccc(-c2n[nH]c3nc(NCCN4CCOCC4)ncc23)n1)c1ccccc1 (stereo not drawn) [Example 75, N1-{6-[6-(2-Morpholin-4-yl-ethylamino)-1H-pyrazolo[3,4-d]pyrimidin-3-yl]-pyridin-2-yl}-1-phenyl-propane-1,3-diamine; hydrochloride]	2.58 µM		2.73 µM	
N[C@H]1CC[C@H](Nc2ncc3c(-c4ccnc(NCc5cccc(C(F)(F)F)c5)n4)n[nH]c3n2)CC1 [Example 84, N-{3-[2-(3-Trifluoromethyl-benzylamino)-pyrimidin-4-yl]-1H-pyrazolo[3,4-d]pyrimidin-6-yl}-cyclohexane-1,4-diamine; hydrochloride]	0.005 µM		0.007 µM	
N[C@H]1CC[C@H](Nc2ncc3c(-c4ccnc(NCc5cccc(F)c5)n4)n[nH]c3n2)CC1 [Example 85, N-{3-[2-(3-Fluoro-benzylamino)-pyrimidin-4-yl]-1H-pyrazolo[3,4-d]pyrimidin-6-yl}-cyclohexane-1,4-diamine; hydrochloride]	0.0046 µM		< 0.0046 µM	
Clc1cccc(CNc2nccc(-c3n[nH]c4nc(NC5CCNCC5)ncc34)n2)c1 [Example 86, {3-[2-(3-Chloro-benzylamino)-pyrimidin-4-yl]-1H-pyrazolo[3,4-d]pyrimidin-6-yl}-piperidin-4-yl-amine; hydrochloride]	0.047 µM		0.078 µM	
CN(C)CCNc1ncc2c(-c3ccnc(NCc4cccc(Cl)c4)n3)n[nH]c2n1 [Example 87, N-{3-[2-(3-Chloro-benzylamino)-pyrimidin-4-yl]-1H-pyrazolo[3,4-d]pyrimidin-6-yl}-N′,N′-dimethyl-ethane-1,2-diamine; hydrochloride]	0.31 µM		0.69 µM	
Clc1cccc(CNc2nccc(-c3n[nH]c4nc(NCC5CCNCC5)ncc34)n2)c1 [Example 88, {3-[2-(3-Chloro-benzylamino)-pyrimidin-4-yl]-1H-pyrazolo[3,4-d]pyrimidin-6-yl}-piperidin-4-ylmethyl-amine; hydrochloride]	0.0089 µM		0.016 µM	
N[C@H]1CC[C@@H](Nc2ncc3c(-c4ccnc(NCc5cccc(Cl)c5)n4)n[nH]c3n2)CC1 [Example 89, N-{3-[2-(3-Chloro-benzylamino)-pyrimidin-4-yl]-1H-pyrazolo[3,4-d]pyrimidin-6-yl}-cyclohexane-1,4-diamine; hydrochloride]	0.415 µM		0.186 µM	
Clc1cccc(CNc2nccc(-c3n[nH]c4nc(NCCN5CCCC5)ncc34)n2)c1 [Example 90, {3-[2-(3-Chloro-benzylamino)-pyrimidin-4-yl]-1H-pyrazolo[3,4-d]pyrimidin-6-yl}-(2-pyrrolidin-1-yl-ethyl)-amine; hydrochloride]	0.536 µM		1.32 µM	

Source: US8362023B2, “Pyrazolo pyrimidines” (Hoffmann-La Roche Inc., priority 2011, dated 2013)
